Data as given in patent publication US9856279B2 (AGIOS PHARMACEUTICALS, INC, priority 2011, dated 2018).

Columns and labels:
IDH1 R132H = IDH1 R132H (Homo sapiens, UniProt O75874, R132H); experiment: Assay for IDH1 R132H inhibitors (NADPH/aKG, resazurin detection); format: biochemical; details: enzyme assay of Example 12; read-out: IDH1R132H IC50
Procedure, shortened: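 Compound added to substrate mix (8 uM NADPH, 2 mM aKG), then enzyme mix (0.2 μg/ml IDH1 R132H); 50 min RT in 20 mM Tris pH 7.5, 150 mM NaCl, 10 mM MgCl2, 0.03% BSA. Resazurin detection mix (30 μM) 5 min RT; resorufin fluorescence Ex544/Em590.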

HT1080 cells = experiment: Cellular assay for IDH1m inhibitors: inhibition of 2-HG production (LC-MS, 48 hours) in HT1080 cells; format: cell-based; details: Homo sapiens, HT-1080; inhibition of 2-HG production, HT1080 cells; read-out: HT1080 IC50
Procedure, shortened: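 Cells were seeded at 5000/well in DMEM with 10% FBS, incubated overnight, then treated with compound (0.2% DMSO final) for 48 h at 37° C. Medium 2-HG was quantified by LC-MS. IC50 is the concentration reducing 2-HG by 50% versus DMSO control, and CellTiter-Glo viability was read at 72 h.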

U87MG cells = experiment: Cellular assay for IDH1m inhibitors: inhibition of 2-HG production (LC-MS, 48 hours) in U87MG cells; format: cell-based; details: Homo sapiens, U-87 MG, inhibition of 2-HG production, U87R132H cells; read-out: U87R132H IC50
Method: Cells (e.g., HT1080 or U87MG) and are grown in T125 flasks in DMEM containing 10% FBS, 1× penicillin/streptomycin and 500 ug/mL G418. They are harvested by trypsin and seeded into 96 well white bottom plates at a density of 5000 cell/well in 100 ul/well in DMEM with 10% FBS. No cells are plates in columns 1 and 12. Cells are incubated overnight at 37° C. in 5% CO2. The next day compounds are made up at 2× concentration and 100 ul are added to each cell well. The final concentration of DMSO is 0.2% and the DMSO control wells are plated in row G. The plates are then placed in the incubator for 48 hours. At 48 hours, 100 μl of media is removed from each well and analyzed by LC-MS for 2-HG concentrations. The cell plate is placed back in the incubator for another 24 hours. At 72 hours post compound addition, 10 mL/plate of Promega Cell Titer Glo reagent is thawed and mixed. The cell plate is removed from the incubator and allowed to equilibrate to room temperature. Then 100 ul of reagent is added to each well of media. The cell plate is then placed on an orbital shaker for 10 minutes and then allowed to sit at room temperature for 20 minutes. The plate is then read for luminescence with an integration time of 500 ms.
The IC50 for inhibition of 2-HG production (concentration of test compound to reduce 2HG production by 50% compared to control) in these two cell lines for various compounds of formula I is set forth in Table 4 above.

Chain of IDH1 R132H (O75874 whole entry R132H): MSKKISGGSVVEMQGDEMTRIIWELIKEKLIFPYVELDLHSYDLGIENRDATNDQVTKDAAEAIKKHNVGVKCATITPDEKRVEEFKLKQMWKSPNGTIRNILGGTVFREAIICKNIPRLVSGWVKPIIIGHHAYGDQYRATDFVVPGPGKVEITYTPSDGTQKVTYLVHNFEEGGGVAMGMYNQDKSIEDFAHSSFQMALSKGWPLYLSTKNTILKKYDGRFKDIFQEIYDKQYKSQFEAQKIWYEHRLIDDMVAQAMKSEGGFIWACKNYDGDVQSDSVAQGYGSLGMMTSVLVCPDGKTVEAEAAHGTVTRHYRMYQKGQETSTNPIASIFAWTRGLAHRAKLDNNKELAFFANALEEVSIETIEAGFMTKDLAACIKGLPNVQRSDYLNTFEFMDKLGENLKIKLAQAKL

Row | IC50 (IDH1 R132H) | IC50 (HT1080 cells) | IC50 (U87MG cells) | SMILES
1 | < 500 nM | < 500 nM | < 500 nM | C=Cc1cc(-c2cc(C#N)c(N3CCN(C(=O)COC)[C@H](C(C)C)C3)nc2C2CC2)c2ccncc2n1 [Compound 741, (R)-6-cyclopropyl-2-(3-isopropyl-4-(2-methoxyacetyl)piperazin-1-yl)-5-(2-vinyl-1,7-naphthyridin-4-yl)nicotinonitrile]
2 | < 500 nM | 500 to 1000 nM | < 500 nM | C=Cc1ccnc(Oc2cc(C#N)c(N3CCN(C(=O)CCOC)[C@H](C4CC4)C3)nc2C2CC2)c1 [Compound 733]
3 | < 500 nM | < 500 nM | < 500 nM | C=Cc1cc(-c2cc(C#N)c(N3CCN(C(=O)CCO)[C@H](C4CC4)C3)nc2C2CC2)c2cnn(C)c2n1 [Compound 744, (R)-6-cyclopropyl-2-(3-cyclopropyl-4-(3-hydroxypropanoyl)piperazin-1-yl)-5-(1-methyl-6-vinyl-1H-pyrazolo[3,4-b]pyridin-4-yl)nicotinonitrile]
4 | < 500 nM | 500 to 1000 nM | < 500 nM | CCS(=O)(=O)N1CCN(c2cc(C#N)c(N3CCN(C(=O)CCOC)[C@H](C)C3)nc2C2CC2)CC1 [Compound 377, (R)-6-cyclopropyl-5-(4-(ethylsulfonyl)piperazin-1-yl)-2-(4-(3-methoxypropanoyl)-3-methylpiperazin-1-yl)nicotinonitrile]
5 | < 500 nM | < 500 nM | < 500 nM | C=Cc1cc(-c2cc(C#N)c(N3CCN(C(=O)CCOC)[C@H](C4CC4)C3)nc2C2CC2)cnn1 [Compound 674, (R)-6-cyclopropyl-2-(3-cyclopropyl-4-(3-methoxypropanoyl)piperazin-1-yl)-5-(6-vinylpyridazin-4-yl)nicotinonitrile]
6 | 500 to 1000 nM | 1000 to 10000 nM | 1000 to 10000 nM | C=Cc1cccc(-c2cc(C#N)c(N3CCN(C(=O)C4CC4)[C@H](C4CC4)C3)nc2C2CC2)n1 [Compound 499, (R)-6′-(4-(cyclopropanecarbonyl)-3-cyclopropylpiperazin-1-yl)-2′-cyclopropyl-6-vinyl-2,3′-bipyridine-5′-carbonitrile]
7 | 500 to 1000 nM | 1000 to 10000 nM | 500 to 1000 nM | COCCC(=O)N1CCN(c2nc(C3CC3)c(-c3cccc(NC(=O)C(C)=O)c3)cc2C#N)C[C@H]1C [Compound 416, (R)—N-(3-(5-cyano-2-cyclopropyl-6-(4-(3-methoxypropanoyl)-3-methylpiperazin-1-yl)pyridin-3-yl)phenyl)-2-oxopropanamide]
8 | < 500 nM | < 500 nM | < 500 nM | COCCC(=O)N1CCN(c2nc(C3CC3)c(-c3ccc(CNS(C)(=O)=O)cc3)c(C)c2C#N)C[C@H]1C [Compound 330, (R)—N-(4-{5-cyano-2-cyclopropyl-6-[4-(3-methoxy-propionyl)-3-methyl-piperazin-1-yl]-4-methyl-pyridin-3-yl}-benzyl)-methanesulfonamide]
9 | < 500 nM | < 500 nM | < 500 nM | C=Cc1ccnc(Nc2c(C3CC3)nc(N3CCN(C(=O)CCO)[C@H](C4CC4)C3)c(C#N)c2C)c1 [Compound 725, (R)-6-cyclopropyl-2-(3-cyclopropyl-4-(3-hydroxypropanoyl)piperazin-1-yl)-4-methyl-5-((4-vinylpyridin-2-yl)amino)nicotinonitrile]
10 | < 500 nM | 1000 to 10000 nM | 1000 to 10000 nM | COCCC(=O)N1CCN(c2nc(C3CC3)c(-c3cccc4[nH]ccc34)cc2C#N)C[C@H]1C [Compound 287, (R)-6-cyclopropyl-5-(1H-indol-4-yl)-2-(4-(3-methoxypropanoyl)-3-methylpiperazin-1-yl)nicotinonitrile]
11 | < 500 nM | 1000 to 10000 nM | 1000 to 10000 nM | COCCC(=O)N1CCN(c2nc(C3CC3)c(-c3ccccc3OC(F)(F)F)cc2C#N)C[C@H]1C(C)C [Compound 276, (R)-6-cyclopropyl-2-(3-isopropyl-4-(3-methoxypropanoyl)piperazin-1-yl)-5-(2-(trifluoromethoxy)phenyl)nicotinonitrile]
12 | < 500 nM | < 500 nM | < 500 nM | C=Cc1ccnc(Nc2cc(C#N)c(N3CCN(C(=O)CCOC)[C@H](C)C3)nc2C2CC2)n1 [Compound 736, (R)-6-cyclopropyl-2-(4-(3-methoxypropanoyl)-3-methylpiperazin-1-yl)-5-((4-vinylpyrimidin-2-yl)amino)nicotinonitrile]
13 | < 500 nM | < 500 nM | < 500 nM | C=Cc1cc(-c2cc(C#N)c(N3CCN(C(C)=O)[C@H](C4CC4)C3)nc2C2CC2)ccn1 [Compound 562, (R)-6-(4-acetyl-3-cyclopropylpiperazin-1-yl)-2-cyclopropyl-2′-vinyl-3,4′-bipyridine-5-carbonitrile]
14 | < 500 nM | – | < 500 nM | C=Cc1cc(-c2c(C3CC3)nc(N3CCN(C(=O)CCO)[C@H](C(C)C)C3)c(C#N)c2C)cnn1 [Compound 773, (R)-6-cyclopropyl-2-(4-(3-hydroxypropanoyl)-3-isopropylpiperazin-1-yl)-4-methyl-5-(6-vinylpyridazin-4-yl)nicotinonitrile]
15 | – | < 500 nM | < 500 nM | C=Cc1cc(-c2cc(C#N)c(N3CCN(C(=O)C4CC4)[C@H](C4CC4)C3)nc2C2CC2)nc(N)n1 [Compound 700, (R)-5-(2-amino-6-vinylpyrimidin-4-yl)-2-(4-(cyclopropanecarbonyl)-3-cyclopropylpiperazin-1-yl)-6-cyclopropylnicotinonitrile]
16 | – | < 500 nM | < 500 nM | N#Cc1cc(Nc2cc(C#N)c(N3CCN(C(=O)C[C@H]4CCO4)[C@H](C4CC4)C3)nc2C2CC2)ccn1 [Compound 783, 4-(5-cyano-2-cyclopropyl-6-((R)-3-cyclopropyl-4-(2-((R)-oxetan-2-yl)acetyl)piperazin-1-yl)pyridin-3-ylamino)picolinonitrile]
17 | < 500 nM | – | < 500 nM | C=Cc1ccnc(Nc2cc(C#N)c(N3CCN(C(=O)CCO)[C@H](C(C)C)C3)nc2C2CC2)c1 [Compound 757, (R)-6-cyclopropyl-2-(4-(3-hydroxypropanoyl)-3-isopropylpiperazin-1-yl)-5-((4-vinylpyridin-2-yl)amino)nicotinonitrile]
18 | < 500 nM | – | < 500 nM | C=Cc1ccnc(Nc2cc(C#N)c(N3CCN(C(=O)CCOC)[C@H](C(C)C)C3)nc2C2CC2)c1 [Compound 758, (R)-6-cyclopropyl-2-(3-isopropyl-4-(3-methoxypropanoyl)piperazin-1-yl)-5-((4-vinylpyridin-2-yl)amino)nicotinonitrile]
19 | < 500 nM | – | 500 to 1000 nM | N#Cc1cc(-c2cnnc(OS(=O)(=O)C(F)(F)F)c2)c(C2CC2)nc1N1CCN(C(=O)C2CC2)[C@H](C2CC2)C1 [Compound 687, (R)-5-(5-cyano-6-(4-(cyclopropanecarbonyl)-3-cyclopropylpiperazin-1-yl)-2-cyclopropylpyridin-3-yl)pyridazin-3-yl trifluoromethanesulfonate]
20 | < 500 nM | – | 1000 to 10000 nM | N#Cc1cc(Cc2ccnc(Cl)c2)c(C2CC2)nc1N1CCN(C(=O)CCO)[C@H](C2CC2)C1 [Compound 708, (R)-5-((2-chloropyridin-4-yl)methyl)-6-cyclopropyl-2-(3-cyclopropyl-4-(3-hydroxypropanoyl)piperazin-1-yl)nicotinonitrile]
21 | < 500 nM | – | < 500 nM | C=Cc1ncc2c(-c3cc(C#N)c(N4CCN(C(=O)CCO)[C@H](C(C)C)C4)nc3C3CC3)cccc2n1 [Compound 650, (R)-6-cyclopropyl-2-(4-(3-hydroxypropanoyl)-3-isopropylpiperazin-1-yl)-5-(2-vinylquinazolin-5-yl)nicotinonitrile]
22 | < 500 nM | – | < 500 nM | C=Cc1cc(-c2cc(C#N)c(N3CCN(C(=O)CCOC)[C@H](C4CC4)C3)nc2C2CC2)c2ccncc2n1 [Compound 658, (R)-6-cyclopropyl-2-(3-cyclopropyl-4-(3-methoxypropanoyl)piperazin-1-yl)-5-(2-vinyl-1,7-naphthyridin-4-yl)nicotinonitrile]
23 | < 500 nM | – | < 500 nM | C=Cc1ncc2c(-c3cc(C#N)c(N4CCN(C(=O)CCO)[C@H](C5CC5)C4)nc3C3CC3)cccc2n1 [Compound 651, (R)-6-cyclopropyl-2-(3-cyclopropyl-4-(3-hydroxypropanoyl)piperazin-1-yl)-5-(2-vinylquinazolin-5-yl)nicotinonitrile]
